Measurements: PubChem BioAssay (NCI)
“And” between values parts separate entries of the source, which are not always exact repeats. Equal values may be shown once.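 Briefly, cells in 96-well plates were exposed to five compound concentrations for 48 h, and endpoints were estimated by linear interpolation. Here, GI50 denotes the concentration required for 50% inhibition of growth. TGI: concentration producing complete growth inhibition.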

Experiments:
Assay in all cases: NCI tumour cell line growth inhibition, 48 h
[1] = tested on: A549 NSCLC
[2] = tested on: HT29 colon
[3] = tested on: K-562 leukemia
[4] = tested on: KM12 colon
[5] = tested on: NCI/ADR-RES ovarian
[6] = tested on: RPMI-8226 leukemia
[7] = tested on: RXF 393 renal
[8] = tested on: SN12C renal
[9] = tested on: UACC-62 melanoma
[10] = tested on: XF 498 CNS

SMILES: Cc1c2cc[nH]c(C(F)(F)F)c2cc2c1nc1ccccc12
- TGI [1]: > 125 µM
- TGI [2]: > 125 µM
- TGI [3]: > 125 µM
- TGI [4]: > 125 µM
- TGI [5]: > 125 µM
- TGI [6]: > 78.9 µM
- TGI [7]: > 125 µM
- TGI [8]: > 125 µM
- TGI [9]: > 125 µM
- TGI [10]: > 19.8 µM

SMILES: CCC1(O)CC(OC2CC(N(C)C)C(OC3CC4OC5CC(=O)C(C)OC5OC4C(C)O3)C(C)O2)c2c(cc3c(c2O)C(=O)c2c(O)ccc(O)c2C3=O)C1C(=O)OC (configuration not stated)
- GI50 [3]: 0.000761 µM and 0.00754 µM
- GI50 [5]: 0.00629 µM and 0.0109 µM and < 0.0105 µM
- TGI [5]: 0.0943 µM and 0.224 µM and 0.171 µM
- GI50 [9]: 0.00479 µM and 0.00857 µM
- TGI [9]: 0.0164 µM and 0.0136 µM
- GI50 [10]: 0.00256 µM
- TGI [10]: 0.0199 µM and 0.0103 µM

SMILES: COC(=O)C(=O)C(C(=O)Nc1cccc(C)c1C)C1Sc2ccccc2NC1=O (configuration not stated)
- TGI [1]: > 25 µM
- TGI [2]: > 25 µM
- TGI [3]: > 25 µM
- TGI [4]: > 25 µM
- TGI [6]: > 25 µM
- TGI [7]: 23.8 µM
- TGI [8]: > 25 µM
- TGI [9]: > 25 µM
- TGI [10]: > 25 µM

SMILES: OCC1OC(c2scc3c(=S)nc[nH]c23)C(O)C1O (configuration not stated)
- TGI [1]: > 100 µM
- TGI [2]: 70.1 µM
- TGI [3]: > 100 µM
- TGI [4]: > 100 µM
- TGI [5]: > 66.3 µM
- TGI [6]: 58 µM
- TGI [7]: > 100 µM
- TGI [8]: > 100 µM
- TGI [9]: 45.6 µM

SMILES: Cc1[nH]c2ncn(/N=C/c3ccccc3O)c(=N)c2c1Cc1ccccc1
- TGI [1]: > 100 µM
- TGI [2]: > 100 µM
- TGI [3]: > 100 µM
- TGI [4]: > 100 µM
- TGI [5]: > 100 µM
- TGI [6]: > 100 µM
- TGI [7]: > 100 µM
- TGI [8]: > 100 µM
- TGI [9]: > 100 µM

SMILES: O=c1[nH]c(=O)n(C2CC(O)C(CO)O2)cc1I (configuration not stated)
- TGI [1]: > 100 µM
- TGI [2]: > 100 µM
- TGI [3]: > 100 µM
- TGI [4]: > 100 µM
- TGI [5]: > 100 µM
- TGI [6]: > 100 µM
- TGI [7]: > 100 µM
- TGI [8]: > 100 µM
- TGI [9]: > 100 µM

SMILES: c1ccc(C2=NC3(CCCCC3)N(c3nc4ccccc4s3)N2)nc1
- TGI [1]: > 100 µM
- TGI [2]: 58 µM
- TGI [3]: > 100 µM
- TGI [4]: 75.9 µM
- TGI [5]: 65.3 µM
- TGI [6]: 52.8 µM
- TGI [7]: 57.7 µM
- TGI [8]: 69.9 µM
- TGI [9]: > 100 µM

SMILES: CNC(=O)c1ccccc1-[s+]1c2ccccc2c(=O)n1C (configuration not stated)
- TGI [1]: > 100 µM
- TGI [2]: > 100 µM
- TGI [3]: > 100 µM
- TGI [4]: > 100 µM
- TGI [5]: > 100 µM
- TGI [6]: > 100 µM
- TGI [7]: > 100 µM
- TGI [8]: > 100 µM
- TGI [9]: > 100 µM

SMILES: O=C(Cc1ccccc1)NCCc1ccc(O)c(O)c1
- TGI [1]: > 100 µM
- TGI [2]: > 100 µM
- TGI [3]: 39.8 µM
- TGI [4]: > 100 µM
- TGI [5]: > 100 µM
- TGI [6]: > 100 µM
- TGI [7]: > 100 µM
- TGI [8]: > 100 µM
- TGI [9]: > 100 µM

SMILES: O=C1c2c(F)c(F)c(F)c(F)c2SC2=NCCN12
- TGI [1]: 30.1 µM
- TGI [2]: 8.12 µM
- TGI [3]: > 22.5 µM
- TGI [4]: 25.6 µM
- TGI [5]: 31.3 µM
- TGI [6]: 24.8 µM
- TGI [7]: 8.89 µM
- TGI [8]: 21.8 µM
- TGI [9]: 19.2 µM

SMILES: CCOc1cc2c(cc1O)/C(=N\N)C[C@@H]1[C@@H]2CC[C@]2(C)[C@@H](O)CC[C@@H]12
- TGI [1]: > 100 µM
- TGI [2]: 30.8 µM
- TGI [3]: > 100 µM
- TGI [4]: 23 µM
- TGI [5]: > 28.2 µM
- TGI [6]: > 100 µM
- TGI [7]: 36.2 µM
- TGI [8]: > 42.4 µM
- TGI [9]: 41.9 µM

SMILES: O=S(=O)(c1ccc(Br)cc1)n1c2ccc(Br)cc2c2nc3ccccc3nc21
- TGI [1]: > 100 µM
- TGI [2]: > 100 µM
- TGI [3]: > 100 µM
- TGI [4]: > 100 µM
- TGI [5]: > 100 µM
- TGI [6]: > 100 µM
- TGI [7]: 53 µM
- TGI [8]: > 100 µM
- TGI [9]: > 100 µM

SMILES: CCCCNC1CCC2(SCCS2)c2[nH]c3ccccc3c21 (configuration not stated)
- TGI [1]: > 100 µM
- TGI [2]: > 100 µM
- TGI [3]: 55.1 µM
- TGI [4]: 36.9 µM
- TGI [5]: > 100 µM
- TGI [6]: > 43.1 µM
- TGI [7]: > 64.3 µM
- TGI [8]: > 100 µM
- TGI [9]: > 83.8 µM

SMILES: C=CCC1(O)c2ccccc2C(=O)c2c(O)ccc(O)c21 (configuration not stated)
- TGI [1]: > 87.3 µM
- TGI [2]: > 62.4 µM
- TGI [3]: > 100 µM
- TGI [4]: 30.1 µM
- TGI [5]: 12.1 µM
- TGI [6]: > 100 µM
- TGI [7]: 21.4 µM
- TGI [8]: 56.4 µM
- TGI [9]: 20.3 µM

SMILES: O=C(O)[C@H]1[C@@H](C2CCCCC2)O[C@@H](C2CCCCC2)O[C@H]1C(F)(F)F
- TGI [1]: 42.4 µM
- TGI [2]: 44 µM
- TGI [3]: > 100 µM
- TGI [4]: 46.4 µM
- TGI [5]: > 100 µM
- TGI [6]: 45.3 µM
- TGI [7]: 48.4 µM
- TGI [8]: 38.5 µM
- TGI [9]: 41.2 µM

SMILES: O=C1N[C@H]2c3c(Cl)sc(Cl)c3/C(=N/O)[C@H]2O1
- TGI [1]: > 100 µM
- TGI [2]: > 100 µM
- TGI [3]: > 100 µM
- TGI [4]: > 100 µM
- TGI [5]: > 100 µM
- TGI [6]: > 100 µM
- TGI [7]: > 100 µM
- TGI [8]: > 100 µM
- TGI [9]: > 100 µM

SMILES: Nc1nc2c(=O)c3ccccc3sc2s1
- TGI [1]: > 100 µM
- TGI [2]: > 100 µM
- TGI [3]: > 100 µM
- TGI [4]: > 100 µM
- TGI [5]: 90.5 µM
- TGI [6]: > 100 µM
- TGI [7]: > 100 µM
- TGI [8]: > 100 µM
- TGI [9]: 84 µM
